Reference: US20250041278A1, “TLR8 AGONIST FOR MODULATING IMMUNE RESPONSE” (The Children's Medical Center Corporation, priority 2021, published 2025)

Assays:
[1] = test system: human monocytic THP-1 cell line; experiment: High throughput screen in THP-1 cells (NF-kB/IRF-inducing and/or leukocyte adherence-inducing activity); format: cell-based
Excerpt: (§1) FIGS. 1A-1D. Discovery of PVP-179 in a human PBMC high-throughput screen. FIG. 1A: A graphical overview depicting screen approach. From a high-throughput screen previously conducted, 310 molecules were identified to be activators of either THP-1 cells (monocyte cell line) or primary human adult peripheral blood mononuclear cells (PBMCs). These 310 molecules were assembled into a stimulation plate and then applied to the PBMCs of 4 elderly donors (cultured with 10% autologous plasma). […] Z scores were averaged across all four elderly donors. The Z score and chemical structure for PVP-179 are indicated. FIG. 1C: Human adult or elderly PBMCs (cultured with 10% autologous plasma) were stimulated with PVP-179 in a two-point concentration titration manner. After 18 hours of incubation, supernatant was processed for ELISA-based measurement of TNF production. N=4 donors. FIG. 1D: As in FIG. 1C, the supernatants were collected, and 14 cytokines were measured by multiplex assay. […] N=4 donors each.
In a previous high throughput screen (HTS), a number of hit molecules were identified as potentially activating human leukocytes. […] A separate pilot screen of 9,000 of the molecules for TNF-inducing activity in adult human peripheral blood mononuclear cells (PBMCs) subsequently identified 133 molecules. […]

[2] = test system: human adult and elderly PBMCs; experiment: TNF ELISA in human adult or elderly PBMCs, 96-well format; format: cell-based; settings: stimulated for 24 hours
Excerpt: as §1, with “After 18 hours of incubation, supernatant was processed for ELISA-based measurement of TNF production.” left out
The activity of PVP-179 was confirmed in a 96-well format in both human adult and elderly PBMCs.

Question: With `CCCCn1c(/N=C/c2nc3ccccc3n2C)nc2ccccc21` [PVP-179] as the compound, how does the “hit call in original THP-1 screen” value [1] read?
Answer: The value was “positive hit”.

Question: What about the “production of TNF” value ([2]; adult PBMCs) of the same compound?
Answer: Its value is “concentration-dependent production of TNF”.

Question: What about the “production of TNF” value ([2]; elderly PBMCs) of the same compound?
Answer: The value was “concentration-dependent production of TNF”.
